Results: PubChem BioAssay AID1963830 (Molecular Pharmacology Branch, DTP, NCI, 2024)

Test system: 922993-354-T-J3-PDC complex spheroid viability
Experiment: Anticancer human tumor 922993-354-T-J3-PDC patient-derived endometrial carcinoma cell line growth inhibition [POLQ]
Settings: for IC50: curve of first compound; for viability, T/C: stronger effect = lower value; active = viability on the fitted dose curve at most 10% of control; inactive = the rest
Method in brief: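 Growth inhibition in 3D: complex spheroids (tumor PDC, HUVEC, MSC) treated with POLQ inhibitor combinations; where Cmax unknown, highest tested concentration 10 microM, except SN-38 at 1 microM.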

[1] = second compound 0.0316 µM, first compound 0.00316 µM
[2] = second compound 0.0316 µM, first compound 0.01 µM
[3] = second compound 0.0316 µM, first compound 0.0316 µM
[4] = second compound 0.0316 µM, first compound 0.1 µM
[5] = second compound 0.0316 µM, first compound 0.316 µM
[6] = second compound 0.0316 µM, first compound 1 µM
[7] = second compound 0.1 µM, first compound 0.00316 µM
[8] = second compound 0.1 µM, first compound 0.01 µM
[9] = second compound 0.1 µM, first compound 0.0316 µM
[10] = second compound 0.1 µM, first compound 0.1 µM
[11] = second compound 0.1 µM, first compound 0.316 µM
[12] = second compound 0.1 µM, first compound 1 µM
[13] = second compound 0.316 µM, first compound 0.00316 µM
[14] = second compound 0.316 µM, first compound 0.01 µM
[15] = second compound 0.316 µM, first compound 0.0316 µM
[16] = second compound 0.316 µM, first compound 0.1 µM
[17] = second compound 0.316 µM, first compound 0.316 µM
[18] = second compound 0.316 µM, first compound 1 µM
[19] = second compound 1 µM, first compound 0.00316 µM
[20] = second compound 1 µM, first compound 0.01 µM
[21] = second compound 1 µM, first compound 0.0316 µM
[22] = second compound 1 µM, first compound 0.1 µM
[23] = second compound 1 µM, first compound 0.316 µM
[24] = second compound 1 µM, first compound 1 µM
[25] = second compound 3.16 µM, first compound 0.00316 µM
[26] = second compound 3.16 µM, first compound 0.01 µM
[27] = second compound 3.16 µM, first compound 0.0316 µM
[28] = second compound 3.16 µM, first compound 0.1 µM
[29] = second compound 3.16 µM, first compound 0.316 µM
[30] = second compound 3.16 µM, first compound 1 µM
[31] = second compound 10 µM, first compound 0.00316 µM
[32] = second compound 10 µM, first compound 0.01 µM
[33] = second compound 10 µM, first compound 0.0316 µM
[34] = second compound 10 µM, first compound 0.1 µM
[35] = second compound 10 µM, first compound 0.316 µM
[36] = second compound 10 µM, first compound 1 µM
[37] = second compound 0.0316 µM, first compound 3.16 µM
[38] = second compound 0.0316 µM, first compound 10 µM
[39] = second compound 0.1 µM, first compound 3.16 µM
[40] = second compound 0.1 µM, first compound 10 µM
[41] = second compound 0.316 µM, first compound 3.16 µM
[42] = second compound 0.316 µM, first compound 10 µM
[43] = second compound 1 µM, first compound 3.16 µM
[44] = second compound 1 µM, first compound 10 µM
[45] = second compound 3.16 µM, first compound 3.16 µM
[46] = second compound 3.16 µM, first compound 10 µM
[47] = second compound 10 µM, first compound 3.16 µM
[48] = second compound 10 µM, first compound 10 µM
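Note: spheroids exposed to the agents for one week.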
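Throughout, for viability, T/C: 100% = DMSO vehicle control wells.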

C=CCn1c(=O)c2cnc(Nc3ccc(N4CCN(C)CC4)cc3)nc2n1-c1cccc(C(C)(C)O)n1 + Cc1cccc(N(C)C(=O)C2C(O)CCN2c2nc(C)cc(C(F)(F)F)c2C#N)c1
inactive: viability, T/C [1] 101% | viability, T/C [2] 105% | viability, T/C [3] 102% | viability, T/C [4] 101% | viability, T/C [5] 105% | viability, T/C [6] 102% | viability, T/C [7] 105% | viability, T/C [8] 104% | viability, T/C [9] 99.5% | viability, T/C [10] 103% | viability, T/C [11] 105% | viability, T/C [12] 101% | viability, T/C [13] 103% | viability, T/C [14] 106% | viability, T/C [15] 98.1% | viability, T/C [16] 104% | viability, T/C [17] 104% | viability, T/C [18] 103% | viability, T/C [19] 105% | viability, T/C [20] 101% | viability, T/C [21] 106% | viability, T/C [22] 99.1% | viability, T/C [23] 104% | viability, T/C [24] 104% | viability, T/C [25] 99.9% | viability, T/C [26] 101% | viability, T/C [27] 100% | viability, T/C [28] 101% | viability, T/C [29] 104% | viability, T/C [30] 99% | viability, T/C [31] 103% | viability, T/C [32] 97.1% | viability, T/C [33] 98.5% | viability, T/C [34] 97.3% | viability, T/C [35] 103% | viability, T/C [36] 94.2%
> 1 µM: IC50 (second compound 0.0316 µM) | IC50 (second compound 0.1 µM) | IC50 (second compound 0.316 µM) | IC50 (second compound 1 µM) | IC50 (second compound 3.16 µM) | IC50 (second compound 10 µM)

CCCS(=O)(=O)Nc1ccc(F)c(C(=O)c2c[nH]c3ncc(-c4ccc(Cl)cc4)cc23)c1F + Cc1cccc(N(C)C(=O)C2C(O)CCN2c2nc(C)cc(C(F)(F)F)c2C#N)c1
inactive: viability, T/C [3] 103% | viability, T/C [4] 99.5% | viability, T/C [5] 103% | viability, T/C [6] 98.1% | viability, T/C [37] 106% | viability, T/C [38] 97.5% | viability, T/C [9] 101% | viability, T/C [10] 102% | viability, T/C [11] 103% | viability, T/C [12] 100% | viability, T/C [39] 102% | viability, T/C [40] 90.1% | viability, T/C [15] 104% | viability, T/C [16] 101% | viability, T/C [17] 105% | viability, T/C [18] 104% | viability, T/C [41] 103% | viability, T/C [42] 95.8% | viability, T/C [21] 102% | viability, T/C [22] 99.8% | viability, T/C [23] 100% | viability, T/C [24] 103% | viability, T/C [43] 105% | viability, T/C [44] 95% | viability, T/C [27] 102% | viability, T/C [28] 103% | viability, T/C [29] 101% | viability, T/C [30] 97.7% | viability, T/C [45] 107% | viability, T/C [46] 94.5% | viability, T/C [33] 98.6% | viability, T/C [34] 103% | viability, T/C [35] 104% | viability, T/C [36] 100% | viability, T/C [47] 108% | viability, T/C [48] 93.2%
> 10 µM: IC50 (second compound 0.0316 µM) | IC50 (second compound 0.1 µM) | IC50 (second compound 0.316 µM) | IC50 (second compound 1 µM) | IC50 (second compound 3.16 µM) | IC50 (second compound 10 µM)

CNCc1ccc(-c2[nH]c3cc(F)cc4c3c2CCNC4=O)cc1 + Cc1cccc(N(C)C(=O)C2C(O)CCN2c2nc(C)cc(C(F)(F)F)c2C#N)c1
inactive: viability, T/C [3] 103% | viability, T/C [4] 101% | viability, T/C [5] 104% | viability, T/C [6] 99.5% | viability, T/C [37] 89.7% | viability, T/C [38] 82.9% | viability, T/C [9] 105% | viability, T/C [10] 101% | viability, T/C [11] 100% | viability, T/C [12] 107% | viability, T/C [39] 89.5% | viability, T/C [40] 90% | viability, T/C [15] 110% | viability, T/C [16] 105% | viability, T/C [17] 96.3% | viability, T/C [18] 97.4% | viability, T/C [41] 92.3% | viability, T/C [42] 86.7% | viability, T/C [21] 110% | viability, T/C [22] 100% | viability, T/C [23] 108% | viability, T/C [24] 90.8% | viability, T/C [43] 94.6% | viability, T/C [44] 90.6% | viability, T/C [27] 105% | viability, T/C [28] 104% | viability, T/C [29] 97% | viability, T/C [30] 90.8% | viability, T/C [45] 97.7% | viability, T/C [46] 82.8% | viability, T/C [33] 105% | viability, T/C [34] 101% | viability, T/C [35] 106% | viability, T/C [36] 87.8% | viability, T/C [47] 84.7% | viability, T/C [48] 44.1%
8.53 µM: IC50 (second compound 10 µM)
> 10 µM: IC50 (second compound 0.0316 µM) | IC50 (second compound 0.1 µM) | IC50 (second compound 0.316 µM) | IC50 (second compound 1 µM) | IC50 (second compound 3.16 µM)

COc1cccc(OCCCN)c1-c1cc(Nc2cnc(C#N)cn2)n[nH]1 + Cc1cccc(N(C)C(=O)C2C(O)CCN2c2nc(C)cc(C(F)(F)F)c2C#N)c1
0.61 µM: IC50 (second compound 0.316 µM)
inactive: viability, T/C [1] 107% | viability, T/C [2] 107% | viability, T/C [3] 103% | viability, T/C [4] 104% | viability, T/C [5] 89% | viability, T/C [6] 19.8% | viability, T/C [7] 104% | viability, T/C [8] 104% | viability, T/C [9] 103% | viability, T/C [10] 97.7% | viability, T/C [11] 91.3% | viability, T/C [12] 14.5% | viability, T/C [13] 102% | viability, T/C [14] 101% | viability, T/C [15] 101% | viability, T/C [16] 98% | viability, T/C [17] 93.5% | viability, T/C [18] 17.2% | viability, T/C [19] 102% | viability, T/C [20] 98.8% | viability, T/C [21] 103% | viability, T/C [22] 98% | viability, T/C [23] 92.4% | viability, T/C [24] 16% | viability, T/C [25] 103% | viability, T/C [26] 106% | viability, T/C [27] 101% | viability, T/C [28] 99.5% | viability, T/C [29] 65.1% | viability, T/C [30] 10.7% | viability, T/C [31] 99.2% | viability, T/C [32] 101% | viability, T/C [33] 94.3% | viability, T/C [34] 65.5% | viability, T/C [35] 13.2%
0.603 µM: IC50 (second compound 0.0316 µM)
0.599 µM: IC50 (second compound 1 µM)
0.14 µM: IC50 (second compound 10 µM)
active: viability, T/C [36] 9.72%
0.585 µM: IC50 (second compound 0.1 µM)
0.436 µM: IC50 (second compound 3.16 µM)
